One data set concerns Plasmodium falciparum. Briefly: Antiplasmodial activity against chloroquine-resistant Plasmodium falciparum W2. The data set is classed as functional, organism-based.
The test system of the next data set is Vero. As to the kind of experiment: Cytotoxicity against African green monkey Vero cells assessed as reduction in cell viability. In kind it is cell-based. Conditions: Chlorocebus sabaeus.
The nature of data set [1]: Selectivity Index, ratio of IC50 for African green monkey Vero cells to IC50 for chloroquine-resistant Plasmodium falciparum W2. The data set is classed as toxicity. The settings on record: read-out: Ratio IC50.

By IC50 is commonly meant the point on the concentration scale where inhibition reaches its midpoint. Take `C[C@@H]1NC(C(=O)NNC(=O)CCNc2ccnc3cc(Cl)ccc23)Cc2c1[nH]c1ccccc21` (some centres not stated): the IC50 in the data set with Plasmodium falciparum came out at 2 µM.
Still for that read-out and setting: to `O=C(CNc1ccnc2cc(Cl)ccc12)NNC(=O)C1Cc2c([nH]c3ccccc23)CN1` (configuration not stated) belongs 4.4 µM.
For `CCOC(=O)C1Cc2c([nH]c3ccccc23)CN1Cc1cn(-c2ccnc3cc(Cl)ccc23)nn1` (configuration not stated), half-maximal inhibition in the data set on Plasmodium falciparum (IC50) was put at 9.28 µM.
The same measure, in the same setting: as for `O=C(O)c1ccc(Nc2ccnc3cc(Cl)ccc23)cc1`, the figure is 8.6 µM; as for `CCOC(=O)C1Cc2c([nH]c3ccccc23)[C@@H](C)N1Cc1cn(-c2ccnc3cc(Cl)ccc23)nn1` (some centres not stated), 4.02 µM.
Take `C[C@H]1NC(C(=O)NNC(=O)c2ccc(Nc3ccnc4cc(Cl)ccc34)cc2)Cc2c1[nH]c1ccccc21` (some centres not stated): the IC50 is 1.21 µM in the data set with Plasmodium falciparum and 103 µM in the data set on Vero. In addition, the selectivity ratio in data set [1] was 84.9.
In the data set on Plasmodium falciparum, `O=C(CCCNc1ccnc2cc(Cl)ccc12)NNC(=O)C1Cc2c([nH]c3ccccc23)CN1` (configuration not stated) displayed a half-maximal inhibitory concentration (IC50) of 3.1 µM.
On the same count and under the same terms, to `C[C@@H]1NC(C(=O)NNC(=O)CNc2ccnc3cc(Cl)ccc23)Cc2c1[nH]c1ccccc21` (some centres not stated) belongs 5 µM.
In the data set with Plasmodium falciparum, `C[C@@H]1NC(C(=O)NNC(=O)CCCCCNc2ccnc3cc(Cl)ccc23)Cc2c1[nH]c1ccccc21` (some centres not stated) yielded a half-maximal inhibitory concentration (IC50) of 1.8 µM.
As to `CCOC(=O)C1Cc2c([nH]c3ccccc23)CN1Cc1cn(CCNc2ccnc3cc(Cl)ccc23)nn1` (configuration not stated), the results for the IC50 in the data set with Plasmodium falciparum and in the data set with Vero were 0.86 µM and 268 µM, respectively. Moreover, in data set [1], the selectivity ratio is 312.
In the same order, the values of `CCOC(=O)C1Cc2c([nH]c3ccccc23)CN1Cc1cn(CCCNc2ccnc3cc(Cl)ccc23)nn1` (configuration not stated) are 0.49 µM, 246 µM and 496.
As for `C#CCN1Cc2[nH]c3ccccc3c2CC1C(=O)OCC` (configuration not stated), the half-maximal inhibitory concentration (IC50) with Plasmodium falciparum came out at 4.3 µM.
As to `C[C@@H]1NC(C(=O)NNC(=O)CCCNc2ccnc3cc(Cl)ccc23)Cc2c1[nH]c1ccccc21` (some centres not stated), 3.4 µM corresponded to half-maximal inhibition in the data set on Plasmodium falciparum (IC50).
On to `CCOC(=O)C1Cc2c([nH]c3ccccc23)[C@@H](C)N1Cc1cn(CCNc2ccnc3cc(Cl)ccc23)nn1` (some centres not stated), for which the half-inhibitory concentration (IC50) in the data set with Plasmodium falciparum came out at 0.93 µM.
Same read-out and setting: as for `CCOC(=O)C1Cc2c([nH]c3ccccc23)[C@@H](C)N1Cc1cn(CCCNc2ccnc3cc(Cl)ccc23)nn1` (some centres not stated), the figure is 1.37 µM; as for `C#CCN1C(C(=O)OCC)Cc2c([nH]c3ccccc23)[C@H]1C` (some centres not stated), 9 µM; as for `O=C(CCNc1ccnc2cc(Cl)ccc12)NNC(=O)C1Cc2c([nH]c3ccccc23)CN1` (configuration not stated), 3.1 µM.
Turning to `O=C(NNC(=O)C1Cc2c([nH]c3ccccc23)CN1)c1ccc(Nc2ccnc3cc(Cl)ccc23)cc1` (configuration not stated), the IC50 came out at 0.61 µM in the data set with Plasmodium falciparum and 95.1 µM in the data set on Vero. For the same compound, in data set [1], the selectivity ratio was 156.
`O=C(CCCCCNc1ccnc2cc(Cl)ccc12)NNC(=O)C1Cc2c([nH]c3ccccc23)CN1` (configuration not stated) registered an IC50 in the data set with Plasmodium falciparum of 2.2 µM.

The record behind these values is ChEMBL document CHEMBL4613217, “Synthesis, anti-plasmodial and cytotoxic evaluation of 1H-1,2,3-triazole/acyl hydrazide integrated tetrahydro-β-carboline-4-aminoquinoline conjugates” (Bioorg Med Chem Lett, 2020).
